Values belong to the molecule of their own block, whether it stands above or below them. The source made the active and inactive calls. The rule behind the calls is not given here.
What was measured:
[1] = target: Voltage-gated inwardly rectifying potassium channel KCNH2 (Homo sapiens, UniProt Q12809); assay: Inhibition of human ERG
[2] = target: T1, ALK tyrosine kinase receptor (Homo sapiens, UniProt Q9UM73); assay: Inhibition of recombinant wild type ALK (unknown origin) using poly (Glu,Tyr)4:1 as substrate after 60 mins by ELISA
Target sequence in this assay (Q9UM73 whole entry): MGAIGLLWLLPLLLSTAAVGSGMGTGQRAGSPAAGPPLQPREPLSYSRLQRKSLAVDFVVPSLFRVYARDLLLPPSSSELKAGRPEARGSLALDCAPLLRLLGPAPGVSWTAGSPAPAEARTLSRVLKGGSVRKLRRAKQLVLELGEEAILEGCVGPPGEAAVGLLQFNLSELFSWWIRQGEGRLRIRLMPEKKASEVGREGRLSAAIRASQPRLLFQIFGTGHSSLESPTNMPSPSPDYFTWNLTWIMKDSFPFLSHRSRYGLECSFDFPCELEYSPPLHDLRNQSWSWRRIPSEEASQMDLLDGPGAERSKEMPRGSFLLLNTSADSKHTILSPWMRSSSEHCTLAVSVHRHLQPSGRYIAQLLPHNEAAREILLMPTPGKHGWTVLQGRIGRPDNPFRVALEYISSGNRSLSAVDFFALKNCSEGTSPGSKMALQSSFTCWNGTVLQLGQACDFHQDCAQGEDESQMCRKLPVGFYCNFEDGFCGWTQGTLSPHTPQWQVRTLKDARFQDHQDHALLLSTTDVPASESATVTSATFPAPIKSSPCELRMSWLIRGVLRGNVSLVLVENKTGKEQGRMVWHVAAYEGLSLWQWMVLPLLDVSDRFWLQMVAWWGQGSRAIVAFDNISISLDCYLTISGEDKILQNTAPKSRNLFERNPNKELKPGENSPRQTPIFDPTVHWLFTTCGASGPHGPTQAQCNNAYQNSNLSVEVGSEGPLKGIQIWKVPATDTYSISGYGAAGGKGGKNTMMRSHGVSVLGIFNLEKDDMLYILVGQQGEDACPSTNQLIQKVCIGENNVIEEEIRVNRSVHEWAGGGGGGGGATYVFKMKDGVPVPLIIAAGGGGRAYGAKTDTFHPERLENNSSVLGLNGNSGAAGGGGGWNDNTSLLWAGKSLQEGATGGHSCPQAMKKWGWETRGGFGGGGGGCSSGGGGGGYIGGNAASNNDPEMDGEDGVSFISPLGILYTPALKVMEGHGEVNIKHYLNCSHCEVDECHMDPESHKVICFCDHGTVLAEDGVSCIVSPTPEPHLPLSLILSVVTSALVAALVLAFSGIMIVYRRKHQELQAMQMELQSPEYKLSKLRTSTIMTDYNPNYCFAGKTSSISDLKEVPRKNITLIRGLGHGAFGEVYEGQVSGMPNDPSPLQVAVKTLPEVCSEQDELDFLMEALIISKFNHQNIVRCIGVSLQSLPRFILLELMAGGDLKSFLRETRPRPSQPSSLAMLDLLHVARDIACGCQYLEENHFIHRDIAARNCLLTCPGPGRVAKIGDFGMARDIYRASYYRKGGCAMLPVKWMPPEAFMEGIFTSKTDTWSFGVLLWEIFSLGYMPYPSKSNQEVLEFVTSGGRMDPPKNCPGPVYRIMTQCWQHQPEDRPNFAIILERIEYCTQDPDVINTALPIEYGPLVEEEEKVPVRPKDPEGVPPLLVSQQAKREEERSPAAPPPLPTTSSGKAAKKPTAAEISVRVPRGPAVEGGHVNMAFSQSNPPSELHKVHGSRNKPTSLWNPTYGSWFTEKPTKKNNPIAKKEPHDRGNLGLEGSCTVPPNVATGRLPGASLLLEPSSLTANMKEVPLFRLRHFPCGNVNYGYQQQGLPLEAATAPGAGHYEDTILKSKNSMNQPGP

[3] = target: ALK tyrosine kinase receptor (Homo sapiens, UniProt Q9UM73, L1196M); assay: Inhibition of recombinant ALK L1196M mutant (unknown origin) using poly (Glu,Tyr)4:1 as substrate after 60 mins by ELISA
ALK tyrosine kinase receptor (Homo sapiens, UniProt Q9UM73, L1196M), sequence (Q9UM73 19-1620 L1196M limits assumed): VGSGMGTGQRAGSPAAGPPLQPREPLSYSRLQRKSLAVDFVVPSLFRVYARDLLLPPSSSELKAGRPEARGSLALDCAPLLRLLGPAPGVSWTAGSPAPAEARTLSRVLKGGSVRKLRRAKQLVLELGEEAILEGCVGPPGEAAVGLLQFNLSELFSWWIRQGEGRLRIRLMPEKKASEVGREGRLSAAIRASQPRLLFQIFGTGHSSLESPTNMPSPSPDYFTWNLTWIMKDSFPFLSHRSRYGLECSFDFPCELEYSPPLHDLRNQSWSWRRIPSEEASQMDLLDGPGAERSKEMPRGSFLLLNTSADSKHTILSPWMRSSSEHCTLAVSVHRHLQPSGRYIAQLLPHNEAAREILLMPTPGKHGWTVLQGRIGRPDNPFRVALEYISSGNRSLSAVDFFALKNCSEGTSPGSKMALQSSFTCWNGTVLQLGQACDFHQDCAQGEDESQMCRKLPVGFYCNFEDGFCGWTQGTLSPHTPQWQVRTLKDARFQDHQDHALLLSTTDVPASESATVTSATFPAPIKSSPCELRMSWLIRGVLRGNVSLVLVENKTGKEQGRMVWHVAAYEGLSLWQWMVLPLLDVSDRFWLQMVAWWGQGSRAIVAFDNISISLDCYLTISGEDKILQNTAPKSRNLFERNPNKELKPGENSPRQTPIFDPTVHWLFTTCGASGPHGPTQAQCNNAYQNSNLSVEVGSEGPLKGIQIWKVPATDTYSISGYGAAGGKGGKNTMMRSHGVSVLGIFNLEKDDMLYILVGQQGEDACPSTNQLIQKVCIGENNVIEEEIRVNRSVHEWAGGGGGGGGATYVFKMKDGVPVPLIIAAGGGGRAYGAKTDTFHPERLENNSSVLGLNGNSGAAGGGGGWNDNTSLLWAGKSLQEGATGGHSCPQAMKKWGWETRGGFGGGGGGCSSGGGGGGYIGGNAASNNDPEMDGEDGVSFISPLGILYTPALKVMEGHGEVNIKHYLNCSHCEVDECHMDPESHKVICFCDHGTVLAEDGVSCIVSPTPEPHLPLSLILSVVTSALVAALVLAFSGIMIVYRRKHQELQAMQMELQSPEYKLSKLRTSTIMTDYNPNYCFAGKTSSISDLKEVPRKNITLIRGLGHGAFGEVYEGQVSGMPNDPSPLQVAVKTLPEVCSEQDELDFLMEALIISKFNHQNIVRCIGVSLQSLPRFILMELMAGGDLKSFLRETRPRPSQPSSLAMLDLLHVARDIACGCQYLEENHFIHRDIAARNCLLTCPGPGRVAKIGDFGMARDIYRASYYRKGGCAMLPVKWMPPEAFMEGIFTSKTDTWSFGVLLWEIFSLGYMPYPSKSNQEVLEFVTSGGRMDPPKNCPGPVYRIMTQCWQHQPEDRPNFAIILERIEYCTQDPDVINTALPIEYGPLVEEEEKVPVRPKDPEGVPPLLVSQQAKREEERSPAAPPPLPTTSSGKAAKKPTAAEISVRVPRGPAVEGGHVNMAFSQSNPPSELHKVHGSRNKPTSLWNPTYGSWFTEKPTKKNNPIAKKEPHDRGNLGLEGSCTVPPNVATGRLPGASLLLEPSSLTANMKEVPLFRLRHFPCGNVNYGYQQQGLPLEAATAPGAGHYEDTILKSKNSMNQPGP

[4] = Antiproliferative activity against ALK constitutively activated human NCI-H3122 cells after 72 hrs by SRB or CCK8 assay; details: NCI-H3122, 72 h
[5] = Antiproliferative activity against ALK constitutively activated human NCI-H3122 cells at 50 nM after 72 hrs by SRB or CCK8 assay relative to control; assay type: functional; details: NCI-H3122, 72 h
[6] = Antiproliferative activity against ALK constitutively activated human SU-DHL1 cells after 72 hrs by SRB or CCK8 assay; details: SU-DHL-1, 72 h
[7] = Antiproliferative activity against ALK constitutively activated human KARPAS299 cells after 72 hrs by SRB or CCK8 assay; details: KARPAS-299, 72 h
[8] = target: Vascular endothelial growth factor receptor 2 (Homo sapiens, UniProt P35968); assay: Inhibition of recombinant KDR (unknown origin) using poly (Glu,Tyr)4:1 as substrate after 60 mins by ELISA
[9] = target: Platelet-derived growth factor receptor alpha (Homo sapiens, UniProt P16234); assay: Inhibition of recombinant PDGFR-alpha (unknown origin) using poly (Glu,Tyr)4:1 as substrate after 60 mins by ELISA
[10] = target: Platelet-derived growth factor receptor beta (Homo sapiens, UniProt P09619); assay: Inhibition of recombinant PDGFR-beta (unknown origin) using poly (Glu,Tyr)4:1 as substrate after 60 mins by ELISA
[11] = target: Insulin-like growth factor 1 receptor (Homo sapiens, UniProt P08069); assay: Inhibition of recombinant IGF1R (unknown origin) using poly (Glu,Tyr)4:1 as substrate after 60 mins by ELISA
[12] = target: Epidermal growth factor receptor (Homo sapiens, UniProt P00533); assay: Inhibition of recombinant EGFR (unknown origin) using poly (Glu,Tyr)4:1 as substrate after 60 mins by ELISA
[13] = target: Receptor tyrosine-protein kinase erbB-2 (Homo sapiens, UniProt P04626); assay: Inhibition of recombinant ErbB2 (unknown origin) using poly (Glu,Tyr)4:1 as substrate after 60 mins by ELISA
[14] = target: Receptor tyrosine-protein kinase erbB-4 (Homo sapiens, UniProt Q15303); assay: Inhibition of recombinant ErbB4 (unknown origin) using poly (Glu,Tyr)4:1 as substrate after 60 mins by ELISA
[15] = target: Tyrosine-protein kinase ABL1 (Homo sapiens, UniProt P00519); assay: Inhibition of recombinant ABL (unknown origin) using poly (Glu,Tyr)4:1 as substrate after 60 mins by ELISA
[16] = target: Ephrin type-A receptor 2 (Homo sapiens, UniProt P29317); assay: Inhibition of recombinant EPHA2 (unknown origin) using poly (Glu,Tyr)4:1 as substrate after 60 mins by ELISA
[17] = target: Proto-oncogene tyrosine-protein kinase Src (Homo sapiens, UniProt P12931); assay: Inhibition of recombinant c-Src (unknown origin) using poly (Glu,Tyr)4:1 as substrate after 60 mins by ELISA
Proto-oncogene tyrosine-protein kinase Src, sequence (P12931 2-536 limits assumed): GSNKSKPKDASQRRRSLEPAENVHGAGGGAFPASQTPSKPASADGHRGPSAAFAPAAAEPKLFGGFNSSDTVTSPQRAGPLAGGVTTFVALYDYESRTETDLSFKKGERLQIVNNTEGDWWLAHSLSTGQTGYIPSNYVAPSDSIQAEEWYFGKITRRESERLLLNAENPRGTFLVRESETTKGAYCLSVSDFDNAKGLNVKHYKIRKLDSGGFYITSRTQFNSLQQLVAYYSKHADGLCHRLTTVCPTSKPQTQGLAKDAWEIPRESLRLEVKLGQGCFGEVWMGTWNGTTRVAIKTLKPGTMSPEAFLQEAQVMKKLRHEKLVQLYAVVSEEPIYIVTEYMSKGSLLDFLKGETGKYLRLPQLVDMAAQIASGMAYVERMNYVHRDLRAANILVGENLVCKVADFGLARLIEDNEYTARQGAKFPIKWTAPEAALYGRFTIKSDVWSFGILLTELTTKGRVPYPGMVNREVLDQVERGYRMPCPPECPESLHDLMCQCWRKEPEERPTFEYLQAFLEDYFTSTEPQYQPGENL

[18] = target: Mast/stem cell growth factor receptor Kit (Homo sapiens, UniProt P10721); assay: Inhibition of recombinant c-Kit (unknown origin) using poly (Glu,Tyr)4:1 as substrate after 60 mins by ELISA
[19] = Half life in Sprague-Dawley rat at 5 mg/kg, iv; assay type: ADME, organism-based; details: in vivo
[20] = AUC (0 to infinity) in Sprague-Dawley rat at 5 mg/kg, iv; assay type: ADME, organism-based; parameters: dose 5 mg/kg, time infinity, route intravenous; details: in vivo
[21] = Volume of distribution in Sprague-Dawley rat at 5 mg/kg, iv; assay type: ADME, organism-based; details: in vivo
[22] = Clearance in Sprague-Dawley rat at 5 mg/kg, iv; assay type: ADME, organism-based; details: in vivo
[23] = Cmax in Sprague-Dawley rat at 10 mg/kg, po; assay type: ADME, organism-based; parameters: dose 10 mg/kg, route oral; details: in vivo
[24] = Tmax in Sprague-Dawley rat at 10 mg/kg, po; assay type: ADME, organism-based; details: in vivo
[25] = AUC (0 to infinity) in Sprague-Dawley rat at 10 mg/kg, po; assay type: ADME, organism-based; parameters: dose 10 mg/kg, time infinity, route oral; details: in vivo
[26] = Oral bioavailability in Sprague-Dawley rat at 10 mg/kg; assay type: ADME, organism-based; details: in vivo
[27] = Antitumor activity against human KARPAS299 cells xenografted in nude mouse assessed as tumor growth inhibition at 50 mg/kg, po qd administered for 14 days measured twice per week during compound dosing relative to vehicle-treated control; assay type: functional; details: KARPAS-299, po, 336 h, read-out: TGI
[28] = target: T1, ALK tyrosine kinase receptor; assay: Inhibition of ALK phosphorylation in human NCI-H3122 cells after 1 hr by Western blot method; assay type: cell-based
Target sequence in this assay (Q9UM73 19-1620 limits assumed): as the sequence (Q9UM73 19-1620 L1196M limits assumed) above, with M1178L counted along it

[29] = target: T1, ALK tyrosine kinase receptor; assay: Inhibition of ALK in human NCI-H3122 cells assessed as decrease in STAT3 phosphorylation after 1 hr by Western blot method; assay type: cell-based
Target sequence in this assay (Q9UM73 19-1620 limits assumed): as the sequence (Q9UM73 19-1620 L1196M limits assumed) above, with M1178L counted along it

[30] = target: T1, ALK tyrosine kinase receptor; assay: Inhibition of ALK in human NCI-H3122 cells assessed as decrease in Akt phosphorylation after 1 hr by Western blot method; assay type: cell-based
Target sequence in this assay (Q9UM73 19-1620 limits assumed): as the sequence (Q9UM73 19-1620 L1196M limits assumed) above, with M1178L counted along it

[31] = target: T1, ALK tyrosine kinase receptor; assay: Inhibition of ALK in human NCI-H3122 cells assessed as decrease in ERK phosphorylation after 1 hr by Western blot method; assay type: cell-based
Target sequence in this assay (Q9UM73 19-1620 limits assumed): as the sequence (Q9UM73 19-1620 L1196M limits assumed) above, with M1178L counted along it

[32] = test system: KARPAS-299; assay: Antitumor activity against human KARPAS299 cells xenografted in nude mouse assessed as tumor regression at 10 to 50 mg/kg, po qd administered for 14 days measured post last dose; assay type: functional, organism-based
[33] = Drug level in rat liver microsomes treated with 9-Ethyl-8-(4-((4-hydroxytetrahydro-2H-pyran-4-yl)methyl)piperazin-1-yl)-6,6-dimethyl-11-oxo-6,11-dihydro-5H-benzo[b]carbazole-3-carbonitrile after 3 hrs; assay type: ADME
[34] = Antitumor activity against human KARPAS299 cells xenografted in nude mouse assessed as tumor growth inhibition at 10 mg/kg, po qd administered for 14 days measured twice per week during compound dosing relative to vehicle-treated control; assay type: functional; details: KARPAS-299, po, 336 h, read-out: TGI
[35] = test system: Mus musculus; assay: Toxicity in nude mouse xenografted with human KARPAS299 cells assessed as body weight loss at 10 to 50 mg/kg, po qd administered for 14 days; assay type: organism-based, KARPAS-299; details: in vivo, 336 h
[36] = Antitumor activity against human KARPAS299 cells xenografted in nude mouse assessed as tumor growth inhibition at 20 mg/kg, po qd administered for 14 days measured twice per week during compound dosing relative to vehicle-treated control; assay type: functional; details: KARPAS-299, po, 336 h, read-out: TGI
[37] = Antiproliferative activity against ALK constitutively activated human NCI-H3122 cells at 10 nM after 72 hrs by SRB or CCK8 assay relative to control; assay type: functional; details: NCI-H3122, 72 h

Voltage-gated inwardly rectifying potassium channel KCNH2, sequence (Q12809 whole entry): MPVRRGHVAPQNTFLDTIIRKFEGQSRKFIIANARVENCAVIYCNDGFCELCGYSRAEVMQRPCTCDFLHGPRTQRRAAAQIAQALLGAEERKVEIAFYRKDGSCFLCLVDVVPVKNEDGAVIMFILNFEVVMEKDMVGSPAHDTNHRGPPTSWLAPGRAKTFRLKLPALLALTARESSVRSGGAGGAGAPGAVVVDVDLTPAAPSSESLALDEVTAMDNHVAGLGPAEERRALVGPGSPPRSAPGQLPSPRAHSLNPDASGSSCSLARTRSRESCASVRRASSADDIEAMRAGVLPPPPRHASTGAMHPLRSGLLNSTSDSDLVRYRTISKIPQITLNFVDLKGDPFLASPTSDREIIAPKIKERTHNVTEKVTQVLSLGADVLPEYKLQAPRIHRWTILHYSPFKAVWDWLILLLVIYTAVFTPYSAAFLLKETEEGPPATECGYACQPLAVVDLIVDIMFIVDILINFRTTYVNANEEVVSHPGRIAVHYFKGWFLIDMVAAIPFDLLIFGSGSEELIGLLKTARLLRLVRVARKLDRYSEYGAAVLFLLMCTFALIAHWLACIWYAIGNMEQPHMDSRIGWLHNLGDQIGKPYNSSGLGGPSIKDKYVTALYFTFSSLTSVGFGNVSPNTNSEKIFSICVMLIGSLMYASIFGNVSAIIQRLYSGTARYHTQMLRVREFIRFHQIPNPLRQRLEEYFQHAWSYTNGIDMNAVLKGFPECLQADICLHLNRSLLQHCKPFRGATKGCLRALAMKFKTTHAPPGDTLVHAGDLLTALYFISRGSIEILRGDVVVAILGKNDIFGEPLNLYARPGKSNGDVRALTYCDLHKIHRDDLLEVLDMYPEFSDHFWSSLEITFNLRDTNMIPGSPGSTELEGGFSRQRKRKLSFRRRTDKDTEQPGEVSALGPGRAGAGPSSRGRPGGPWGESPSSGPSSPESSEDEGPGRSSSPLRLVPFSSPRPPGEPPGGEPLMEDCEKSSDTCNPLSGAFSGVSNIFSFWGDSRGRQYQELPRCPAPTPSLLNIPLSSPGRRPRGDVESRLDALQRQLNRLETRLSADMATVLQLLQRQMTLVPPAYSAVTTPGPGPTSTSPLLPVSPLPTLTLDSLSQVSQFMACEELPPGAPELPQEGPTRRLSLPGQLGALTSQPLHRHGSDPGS

Compound: CC1(C)c2cc(C3CCN(CC4(O)CCOCC4)CC3)ccc2C(=O)c2c1[nH]c1cc(C#N)ccc21
IC50 [1]: > 12300 nM

IC50 [2]: 1.5 nM
IC50 [3]: 4.2 nM
IC50 [8]: > 1000 nM
IC50 [9]: > 1000 nM
IC50 [10]: > 1000 nM
IC50 [11]: > 1000 nM
IC50 [12]: > 1000 nM
IC50 [13]: > 1000 nM
IC50 [14]: > 1000 nM
IC50 [15]: > 1000 nM
IC50 [16]: > 1000 nM
IC50 [17]: > 1000 nM
IC50 [18]: > 1000 nM
half-life [19]: 5.5 h
AUC(0-inf) [20]: 6640 ng·h/mL
Vd [21]: 5 L/kg
clearance [22]: 12.2 mL/min/kg
Cmax [23]: 867 ng/mL
Tmax [24]: 4 h
AUC(0-inf) [25]: 11700 ng·h/mL
bioavailability [26]: 105%
Compound: CCc1cc2c(cc1N1CCN(CC3(O)CCOCC3)CC1)C(C)(C)c1[nH]c3cc(C#N)ccc3c1C2=O [listing 1 of 2 here]
IC50 [4]: 24.4 nM
inhibition at 0.05 µM [5]: 80%
IC50 [6]: 16.7 nM
IC50 [7]: 22.6 nM
IC50 [1]: 30000 to 33400 nM

Compound: C[C@@H](Oc1cc(-c2cnn(C3CCNCC3)c2)cnc1N)c1c(Cl)ccc(F)c1Cl [CRIZOTINIB]
IC50 [4]: 101 nM
IC50 [6]: 92.3 nM
IC50 [7]: 105 nM
inhibition in vivo at 50 mg/kg [27]: 109%

inhibition [28]: Dose-dependent effect
inhibition [29]: Dose-dependent effect
inhibition [30]: Dose-dependent effect
inhibition [31]: Dose-dependent effect
Compound: CCc1cc2c(cc1N1CCN(CC3(O)CCOCC3)CC1)C(C)(C)c1[nH]c3cc(C#N)ccc3c1C2=O [listing 2 of 2 here]
Activity [32]: Active

IC50 [2]: 7 nM
Compound: CCc1cc2c(cc1N1CCN(CC3(O)CCCCC3)CC1)C(C)(C)c1[nH]c3cc(C#N)ccc3c1C2=O
inhibition at 0.05 µM [5]: 40%

IC50 [2]: 1.4 nM
Compound: CCc1cc2c(cc1N1CCN(CC3(O)CCNCC3)CC1)C(C)(C)c1[nH]c3cc(C#N)ccc3c1C2=O
inhibition at 0.05 µM [5]: 5%

IC50 [2]: 17.1 nM
Drug metabolism [33]: Metabolite_Detected
Compound: CCc1cc2c(cc1N1CCN(CC(O)(CCC(=O)O)CC(=O)O)CC1)C(C)(C)c1[nH]c3cc(C#N)ccc3c1C2=O (stereo not given)
inhibition at 0.05 µM [5]: 3%

Compound: CCc1cc2c(cc1N1CCN(CC3(O)CCOCC3)CC1)C(C)(C)c1[nH]c3cc(C#N)ccc3c1C2=O.Cl
inhibition in vivo at 50 mg/kg [27]: 110%
inhibition in vivo at 10 mg/kg [34]: 110%
Activity [35]: Non-Toxic
inhibition in vivo at 20 mg/kg [36]: > 100%

IC50 [2]: 2.4 nM
Compound: CCc1cc2c(cc1N1CCN(CC3(O)CC(C)OC(C)C3)CC1)C(C)(C)c1[nH]c3cc(C#N)ccc3c1C2=O (stereo not given)
inhibition at 0.01 µM [37]: 40%

Compound: CC1(C)c2cc(C3CCN(CC4CCOCC4)CC3)ccc2C(=O)c2c1[nH]c1cc(C#N)ccc21
IC50 [1]: 2650 nM

— ChEMBL document CHEMBL3864153, “Metabolism-based structure optimization: Discovery of a potent and orally available tyrosine kinase ALK inhibitor bearing the tetracyclic benzo[b]carbazolone core” (Bioorg Med Chem Lett, 2016)
